Data from the NIST ThermoML archive (doi:10.1016/j.jct.2006.09.003).
Numbers after ± are expanded uncertainties.

Conditions: Fluid (supercritical or subcritical phases), Bellows volumetry

CCCC [butane]
mass density [kg/m3]
Conditions | 280 K | 300 K | 320 K | 340 K | 360 K | 380 K
1000 kPa | 595.47 ± 1.1 | 572.94 ± 1 | 548.24 ± 0.99 | 521.26 ± 0.94 | – | –
2000 kPa | 596.86 ± 1.1 | 574.58 ± 1 | 550.53 ± 0.99 | 524.21 ± 0.94 | 494.28 ± 0.89 | 456.63 ± 0.82
3000 kPa | 598.22 ± 1.1 | 576.27 ± 1 | 552.73 ± 0.99 | 527.06 ± 0.95 | 498.49 ± 0.9 | 463.53 ± 0.83
5000 kPa | 600.88 ± 1.1 | 579.56 ± 1 | 556.84 ± 1 | 532.46 ± 0.96 | 505.91 ± 0.91 | 474.94 ± 0.86
10000 kPa | 607.05 ± 1.1 | 586.77 ± 1.1 | 566.09 ± 1 | 544.06 ± 0.98 | 520.98 ± 0.94 | 495.21 ± 0.89
20000 kPa | 617.68 ± 1.1 | 599.44 ± 1.1 | 580.87 ± 1.1 | 561.99 ± 1 | 542.91 ± 0.98 | 522.42 ± 0.94
30000 kPa | 626.91 ± 1.1 | 610.13 ± 1.1 | 593.19 ± 1.1 | 576.2 ± 1 | 559.24 ± 1 | 541.49 ± 0.98
40000 kPa | 635.29 ± 1.1 | 619.89 ± 1.1 | 603.68 ± 1.1 | 588.27 ± 1.1 | 572.58 ± 1 | 556.53 ± 1
50000 kPa | 642.77 ± 1.2 | 628.14 ± 1.1 | 612.97 ± 1.1 | 598.47 ± 1.1 | 584.17 ± 1.1 | 569.05 ± 1
60000 kPa | 649.44 ± 1.2 | 635.82 ± 1.1 | 621.23 ± 1.1 | 607.64 ± 1.1 | 593.9 ± 1.1 | 580.01 ± 1.1
70000 kPa | 655.79 ± 1.2 | 642.36 ± 1.2 | 628.85 ± 1.1 | 615.81 ± 1.1 | 602.93 ± 1.1 | 589.59 ± 1.1
80000 kPa | 661.73 ± 1.2 | 648.71 ± 1.2 | 635.85 ± 1.1 | 623.32 ± 1.1 | 610.9 ± 1.1 | 598.34 ± 1.1
90000 kPa | 667.23 ± 1.2 | 654.83 ± 1.2 | 642.47 ± 1.2 | 630.37 ± 1.1 | 618.47 ± 1.1 | 606.19 ± 1.1
100000 kPa | 672.51 ± 1.2 | 660.41 ± 1.2 | 648.38 ± 1.2 | 636.58 ± 1.1 | 625.39 ± 1.1 | 613.44 ± 1.1
120000 kPa | 682.08 ± 1.8 | 670.68 ± 1.2 | 659.38 ± 1.2 | 648.45 ± 2.9 | 637.62 ± 1.2 | 626.58 ± 1.1
140000 kPa | 690.89 ± 1.8 | 680.05 ± 1.2 | 669.21 ± 1.2 | 658.64 ± 2.9 | 648.76 ± 1.2 | 638.25 ± 1.2
160000 kPa | 698.82 ± 1.8 | 688.48 ± 1.3 | 678.31 ± 1.2 | 668.16 ± 3 | 658.47 ± 1.2 | 648.59 ± 1.2
180000 kPa | 706.38 ± 1.9 | 696.25 ± 1.3 | 686.49 ± 1.3 | 676.9 ± 3 | 667.68 ± 1.2 | 658.14 ± 1.2
200000 kPa | 713.34 ± 1.9 | 703.51 ± 1.3 | 694.12 ± 1.3 | 684.85 ± 3 | 676.03 ± 1.3 | 666.86 ± 1.2
